From patent US12180192B2, “Modulators of THR-β and methods of use thereof” (ALIGOS THERAPEUTICS, INC., priority 2019, dated 2024)
Where two headings read alike, the source gives them in different places.

Experiments:
[1] = target: T1, human thyroid receptor beta ligand-binding domain (LBD) (Homo sapiens, UniProt P10828); assay: TR-FRET thyroid receptor beta coactivator assay (THR biochemical assay, Assay 1); settings: for EC50: THR-beta, TR-FRET coactivator assay, read-out: Activity category Assay 1 (EC50, THR-beta agonist); for Emax / Activity category Assay 1 THRβ (Emax): Table 5, Assay 1, THRβ; for Emax: read-out: Activity category Assay 1 THRβ (Emax)
T1 construct: purchased Invitrogen
T1 sequence (P10828 217-461 limits assumed): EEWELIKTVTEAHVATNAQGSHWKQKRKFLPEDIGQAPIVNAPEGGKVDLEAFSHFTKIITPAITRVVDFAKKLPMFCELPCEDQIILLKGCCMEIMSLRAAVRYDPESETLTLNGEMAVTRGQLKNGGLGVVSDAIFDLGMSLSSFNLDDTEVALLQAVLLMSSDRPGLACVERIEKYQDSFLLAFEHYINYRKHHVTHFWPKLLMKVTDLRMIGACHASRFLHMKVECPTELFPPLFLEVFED
How it was run: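 GST-tagged human TRβ or TRα LBD, 1 nM final (stated for β), with fluorescein-SRC2-2 coactivator peptide (200 nM) and Tb-anti-GST antibody (2 nM). Agonists serially diluted, 1% DMSO final. 1 h incubation at rt in the dark; TR-FRET read as rise in fluorescein and drop in terbium emission.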

[2] = system: CPT1A gene expression in Huh-7 cells; assay: Huh-7 differential gene expression, CPT1A RT-qPCR (Assay 3); type: cell-based; settings: Table 6, Huh-7 cells, CPT1A, 24 hr treatment; for EC50: read-out: Activity category Assay 3 EC50; for Emax: read-out: Activity category Assay 3 Emax
Method: Huh-7 Differential Gene Expression (Assay 3)
Fetal bovine serum (FBS) was incubated with washed resin (50 mg resin/mL FBS; resin weight is dry weight of resin prior to washing) for 5 hr at room temperature on a rotor. The FBS was separated from the resin via centrifugation and incubated with new, washed resin for 18 h at room temperature on a rotor.
Cell Culture and Drug Treatment
Huh-7 cells were cultured in DMEM (10-013-CM, Corning) supplemented with 10% FBS and 1% Pen-Strep at 37° C. under 5% C02. When 70-80% confluence was reached, the cells were removed by trypsinization. The medium was aspirated from the cell culture dish, the cell monolayer was washed with 1×PBS, and 0.05% trypsin, 0.53 mM EDTA (25-052-CV, Corning) solution was added to the dish. After 3 min incubation, the cells were detached completely by repeatedly pipetting solution onto the monolayer. Equal volume of DMEM supplemented with 10% rFBS and 1% Pen-Strep (TH-depleted DMEM) was added to the dish to inactivate the trypsin. The cell suspension was centrifuged at 350×g at room temperature for 3 min. The supernatant was aspirated out and the cell pellet was resuspended in TH-depleted DMEM. […] After 24 hr incubation, the media was replaced with treatment media. All compounds were serially diluted in DMSO and final concentrations were reached by dilution in TH-depleted DMEM (0.1% DMSO). The cells were incubated in treatment media for 24 hr. Treatments were performed in biological duplicates.
After 24 hr in treatment media, the cells were lysed directly on the culture plates and cDNA was produced using the TaqMan™ Fast Advanced Cells-to-CT™ Kit (A35374, Invitrogen) and following the manufacturer's protocol. RT-qPCR for CPT1A (Hs00912671_m1) and two housekeeping genes, ACTB (Hs01060665_g1) and TFG (Hs02832013_g1), was performed using TaqMan™ Fast Advanced Master Mix. RT-qPCR reactions were run on the qTOWER^3 84 G (Analytik Jena) in technical duplicates.
ΔRn values were obtained from the qPCRsoft384 1.0 software and CPT1A gene expression was quantified via the 2-ΔΔCt method. Dose-response curves were generated using GraphPad Prism 8 using four parameter logistic equation without top constraint to derive EC50 and Emax.

SMILES	EC50 [1] [nM]	Emax [1] [%]	EC50 ([2]; Homo sapiens, Huh-7, 24 h) [nM]	Emax ([2]; Homo sapiens, Huh-7, 24 h) [%]	Activity category Assay 1 THRβ (Emax) [1]	Activity category Assay 3 Emax [2]	EC50 [2] [nM]
CC1(C)CC(c2cc(Oc3c(Cl)cc(-n4nc(N)c(=O)[nH]c4=O)cc3Cl)n[nH]c2=O)C1 [Compound 89, 6-Amino-2-(3,5-dichloro-4-((5-(3,3-dimethylcyclobutyl)-6-oxo-1,6-dihydropyridazin-3-yl)oxy)phenyl)-1,2,4-triazine-3,5(2H,4H)-dione]	< 50	< 50	100 to 1000	> 75	–	–	–
Nc1nn(-c2cc(Cl)c(Oc3cc(-c4ccc5c(c4)CCCO5)c(=O)[nH]n3)c(Cl)c2)c(=O)[nH]c1=O [Compound 114]	50 to 250	< 50	100 to 1000	50 to 75	–	–	–
CC(C)Nc1n[nH]c2ccc(Oc3c(Cl)cc(-n4nc(C#N)c(=O)[nH]c4=O)cc3Cl)cc12 [Compound 145, 2-(3,5-dichloro-4-((3-(isopropylamino)-1H-indazol-5-yl)oxy)phenyl)-3,5-dioxo-2,3,4,5-tetrahydro-1,2,4-triazine-6-carbonitrile]	< 50	< 50	100 to 1000	> 75	–	–	–
CC(C)c1n[nH]c2nnc(Oc3c(Cl)cc(-n4nc(C#N)c(=O)[nH]c4=O)cc3Cl)cc12 [Compound 75A, 2-(3,5-Dichloro-4-((3-isopropyl-1H-pyrazolo[3,4-c]pyridazin-5-yl)oxy)phenyl)-3,5-dioxo-2,3,4,5-tetrahydro-1,2,4-triazine-6-carbonitrile]	< 50	50 to 75	> 100	> 75	–	–	–
Cc1cc(-n2nc(N)c(=O)[nH]c2=O)cc(C)c1Cc1ccc2c(c1)C1(CC1)C(=O)N2 [Compound 151, 6-Amino-2-(3,5-dimethyl-4-((2′-oxospiro[cyclopropane-1,3′-indolin]-5′-yl)methyl)phenyl)-1,2,4-triazine-3,5(2H,4H)-dione]	< 50	50 to 75	< 100	> 75	–	–	–
Nc1nn(-c2cc(Cl)c(Oc3cc(C4CCC4)c(=O)[nH]n3)c(Cl)c2)c(=O)[nH]c1=O [Compound 40, 6-amino-2-[3,5-dichloro-4-[(5-cyclobutyl-6-oxo-1H-pyridazin-3-yl)oxy]phenyl]-4H-1,2,4-triazine-3,5-dione]	< 50	50 to 75	< 100	> 75	–	–	–
Nc1nn(-c2cc(Cl)c(Oc3cc(C4CC5(CC5)C4)c(=O)[nH]n3)c(Cl)c2)c(=O)[nH]c1=O [Compound 93]	50 to 250	< 50	< 100	50 to 75	–	–	–
CC(c1ccccc1)c1cc(Oc2c(Cl)cc(-n3nc(N)c(=O)[nH]c3=O)cc2Cl)n[nH]c1=O (single isomer, unassigned) [Compound 164, 6-Amino-2-(3,5-dichloro-4-((6-oxo-5-(1-phenylethyl)-1,6-dihydropyridazin-3-yl)oxy)phenyl)-1,2,4-triazine-3,5(2H,4H)-dione]	< 50	–	< 100	50 to 75	C (Emax<50%)	–	–
Nc1nn(-c2cc(Cl)c(Oc3n[nH]c(=O)cc3-c3ccc4c(c3)CCCO4)c(Cl)c2)c(=O)[nH]c1=O [Compound 115]	50 to 250	< 50	> 100	> 75	–	–	–
Cc1cc(-n2nc(N)c(=O)[nH]c2=O)cc(C)c1Cc1cc2c(C(C)C)c[nH]c2cn1 [Compound 157, 6-amino-2-[4-[(3-isopropyl-1H-pyrrolo[2,3-c]pyridin-5-yl)methyl]-3,5-dimethyl-phenyl]-1,2,4-triazine-3,5-dione]	< 50	> 75	< 100	> 75	–	–	–
Nc1nn(-c2cc(Cl)c(Oc3cc(C4Cc5ccccc54)c(=O)[nH]n3)c(Cl)c2)c(=O)[nH]c1=O (stereo not drawn) [Compound 158]	< 50	< 50	> 100	< 50	–	–	–
Cc1cccc(-c2cc(Oc3c(Cl)cc(-n4nc(N)c(=O)[nH]c4=O)cc3Cl)n[nH]c2=O)c1 [Compound 70, 6-Amino-2-(3,5-dichloro-4-((6-oxo-5-(m-tolyl)-1,6-dihydropyridazin-3-yl)oxy)phenyl)-1,2,4-triazine-3,5(2H,4H)-dione]	< 50	< 50	< 100	50 to 75	–	–	–
Nc1nn(-c2cc(Cl)c(Oc3n[nH]c(=O)cc3-c3ccc4c(c3)CCCC4)c(Cl)c2)c(=O)[nH]c1=O [Compound 72-A, 6-amino-2-(3,5-dichloro-4-[[6-oxo-4-(5,6,7,8-tetrahydronaphthalen-2-yl)-1H-pyridazin-3-yl]oxy]phenyl)-4H-1,2,4-triazine-3,5-dione]	< 50	< 50	100 to 1000	> 75	–	–	–
Nc1nn(-c2cc(Cl)c(Oc3n[nH]c(=O)cc3-c3ccc4ccccc4c3)c(Cl)c2)c(=O)[nH]c1=O [Compound 67-A, 6-amino-2-(3,5-dichloro-4-((4-(naphthalen-2-yl)-6-oxo-1,6-dihydropyridazin-3-yl)oxy)phenyl)-1,2,4-triazine-3,5(2H,4H)-dione]	< 50	< 50	100 to 1000	< 50	–	–	–
CC(c1cc(Oc2c(Cl)cc(-n3nc(N)c(=O)[nH]c3=O)cc2Cl)n[nH]c1=O)C1CC(F)(F)C1 (single isomer, unassigned) [Compound 61-B, 6-amino-2-[3,5-dichloro-4-([5-[1-(3,3-difluorocyclobutyl)ethyl]-6-oxo-1H-pyridazin-3-yl]oxy)phenyl]-4H-1,2,4-tri-azine-3,5-dione]	50 to 250	–	–	–	C (Emax<50%)	A (Emax≥75%)	> 100
Nc1nn(-c2cc(Cl)c(Oc3ccc4c(c3)C3(CCCC3)C(=O)N4)c(Cl)c2)c(=O)[nH]c1=O [Compound 83]	< 50	50 to 75	< 100	> 75	–	–	–
CCC(C)c1cc(Oc2c(Cl)cc(-n3nc(N)c(=O)[nH]c3=O)cc2Cl)n[nH]c1=O (stereo not drawn) [Compound 39-B]	< 50	–	–	–	B (Emax≥50%, and <75%)	A (Emax≥75%)	< 100
CC(C)c1c[nH]c2ccc(Oc3c(Cl)cc(-n4nc(C#N)c(=O)[nH]c4=O)cc3Cl)cc12 [Compound 1, 2-[3,5-dichloro-4-[(3-isopropyl-1H-indol-5-yl)oxy]-phenyl]-3,5-dioxo-4H-1,2,4-tri-azine-6-carbonitrile]	< 50	50 to 75	100 to 1000	> 75	–	–	–
CCC(C)c1cc(Oc2c(Cl)cc(-n3nc(N)c(=O)[nH]c3=O)cc2Cl)n[nH]c1=O (stereo not drawn) [Compound 39-A]	< 50	–	–	–	C (Emax<50%)	B (Emax≥50%, and <75%)	< 100
Cc1ccc(-c2cc(Oc3c(Cl)cc(-n4nc(N)c(=O)[nH]c4=O)cc3Cl)n[nH]c2=O)cc1C [Compound 112]	50 to 250	< 50	100 to 1000	> 75	–	–	–
Cc1cc(-n2nc(C#N)c(=O)[nH]c2=O)cc(C)c1Cc1ccc2[nH]c(=O)cc(C(C)C)c2c1 [Compound 90, 2-(4-((4-Isopropyl-2-oxo-1,2-dihydroquinolin-6-yl)methyl)-3,5-dimethylphenyl)-3,5-dioxo-2,3,4,5-tetrahydro-1,2,4-triazine-6-carbonitrile]	< 50	< 50	> 100	50 to 75	–	–	–
